Test results as given in ChEMBL document CHEMBL1201862, “PubChem BioAssay data set” (2004).
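Following 48 hours of exposure in 96-well plates, responses at five concentrations were used to interpolate endpoints linearly. Here, GI50 denotes the concentration required for 50% inhibition of growth.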 Calls of active or inactive are those of the source. No stated cut-off is given here; in the data, active = GI50 up to about 1.1 µM and inactive = higher.

Key:
Assay in all cases: DTP human tumour cell line panel, 48 h
[1] = tested on: MOLT-4
[2] = tested on: LOX IMVI
[3] = tested on: NCI-H522
[4] = tested on: NCI-H460
[5] = tested on: NCI-H226
[6] = tested on: SK-OV-3
[7] = tested on: IGROV-1
[8] = tested on: NCI-H23
[9] = tested on: Malme-3M
[10] = tested on: SF-268
[11] = tested on: K562
[12] = tested on: DU-145
[13] = tested on: SK-MEL-5
[14] = tested on: HCT-116
[15] = tested on: BT-549
[16] = tested on: OVCAR-4
[17] = tested on: OVCAR-8
[18] = tested on: HCT-15
[19] = tested on: A498
[20] = tested on: RPMI-8226

Compound | GI50 [1] | GI50 [2] | GI50 [3] | GI50 [4] | GI50 [5] | GI50 [6] | GI50 [7] | GI50 [8] | GI50 [9] | GI50 [10] | GI50 [11] | GI50 [12] | GI50 [13] | GI50 [14] | GI50 [15] | GI50 [16] | GI50 [17] | GI50 [18] | GI50 [19] | GI50 [20]
O=S(=O)(/N=C(\NO)Nc1ccc(Cl)cc1)C1CC=C(c2ccon2)S1 (stereo not given) | 3.34 µM (inactive) | 21 µM (inactive) | 1.13 µM (inactive) | 16 µM (inactive) | 13.4 µM (inactive) | > 100 µM (inactive) | 11.6 µM (inactive) | 13.2 µM (inactive) | 1.55 µM (inactive) | 14.7 µM (inactive) | 7.1 µM (inactive) | 55.3 µM (inactive) | 20.4 µM (inactive) | 15.6 µM (inactive) | 12.3 µM (inactive) | 3.52 µM (inactive) | 8.77 µM (inactive) | 15.5 µM | 7.24 µM (inactive) | 6.07 µM (inactive)
C=Cc1nc2c(Cl)ncnc2n1Cc1ccccc1 | 2.18 µM (inactive) | 2.76 µM (inactive) | 1.89 µM (inactive) | 7.8 µM (inactive) | 3.08 µM (inactive) | 15.3 µM (inactive) | 3.08 µM (inactive) | 3.52 µM (inactive) | 4.03 µM (inactive) | 6.35 µM (inactive) | 3.05 µM (inactive) | 2.17 µM (inactive) | 2.54 µM (inactive) | 2.06 µM (inactive) | 4.71 µM (inactive) | 2.76 µM (inactive) | 3.2 µM (inactive) | 2.51 µM | 7.13 µM (inactive) | 0.839 µM (active)
COc1cc(CNc2c3ccccc3nc3ccccc23)cc(OC)c1OC | 1.37 µM (inactive) | 2.39 µM (inactive) | 2.55 µM (inactive) | 2.57 µM (inactive) | 3.15 µM (inactive) | 5.47 µM (inactive) | 3.81 µM (inactive) | 3.46 µM (inactive) | 3.71 µM (inactive) | 4.07 µM (inactive) | 1.32 µM (inactive) | 4.52 µM (inactive) | 2.72 µM (inactive) | 1.44 µM (inactive) | 3.87 µM (inactive) | 2.1 µM (inactive) | 3.79 µM (inactive) | 2.97 µM | 1.82 µM (inactive) | 2.82 µM (inactive)
O=C(O)c1cccc(SSc2cccc(C(=O)O)c2)c1 | > 100 µM (inactive) | > 100 µM (inactive) | 58.1 µM (inactive) | > 100 µM (inactive) | > 100 µM (inactive) | > 100 µM (inactive) | > 100 µM (inactive) | > 100 µM (inactive) | > 100 µM (inactive) | > 100 µM (inactive) | > 100 µM (inactive) | > 100 µM (inactive) | > 100 µM (inactive) | > 100 µM (inactive) | > 100 µM (inactive) | > 100 µM (inactive) | > 100 µM (inactive) | > 100 µM | > 100 µM (inactive) | > 100 µM (inactive)
COc1cc2cc(C(=O)N3CC(CCl)c4c3cc(N)c3ccccc43)[nH]c2cc1OCCN(C)C (stereo not given) | 0.0561 µM (active) | < 0.005 µM (active) | < 0.005 µM (active) | < 0.005 µM (active) | 0.00528 µM (active) | 0.0105 µM (active) | < 0.005 µM (active) | < 0.005 µM (active) | 0.0053 µM (active) | < 0.005 µM (active) | < 0.005 µM (active) | < 0.005 µM (active) | < 0.005 µM (active) | < 0.005 µM (active) | 0.051 µM (active) | 0.00628 µM (active) | < 0.005 µM (active) | 0.00553 µM | 0.00546 µM (active) | < 0.005 µM (active)
C=C(C)C(CC=C(C)C)Cc1c(O)cc(OC)c2c1OC(c1ccc(O)cc1O)C(O)C2=O (stereo not given) | > 100 µM (inactive) | 20 µM (inactive) | 18.9 µM (inactive) | 15.5 µM (inactive) | 18.3 µM (inactive) | 16.8 µM (inactive) | 14.6 µM (inactive) | 17.9 µM (inactive) | 17.7 µM (inactive) | 18.6 µM (inactive) | > 100 µM (inactive) | 18.3 µM (inactive) | 18.5 µM (inactive) | 17.3 µM (inactive) | 14.9 µM (inactive) | 16.3 µM (inactive) | 17 µM (inactive) | 17 µM | 16.5 µM (inactive) | > 100 µM (inactive)
FC(F)(F)c1n[nH]c(SCc2ccc(Cl)cc2)n1 | > 100 µM (inactive) | > 100 µM (inactive) | > 100 µM (inactive) | > 100 µM (inactive) | > 100 µM (inactive) | > 100 µM (inactive) | > 100 µM (inactive) | > 100 µM (inactive) | > 100 µM (inactive) | > 100 µM (inactive) | > 100 µM (inactive) | > 100 µM (inactive) | > 100 µM (inactive) | > 100 µM (inactive) | > 100 µM (inactive) | > 100 µM (inactive) | > 100 µM (inactive) | > 100 µM | > 100 µM (inactive) | > 100 µM (inactive)
